Values joined by “and” are separate entries in the source; they are usually repeats but may differ in a detail not shown here. Equal entries are not always repeated. Structures can show the parent of a compound that is named as a salt.
Molecular target: 5-hydroxytryptamine receptor 4 (Cavia porcellus, UniProt O70528)
Sequence (O70528 whole entry): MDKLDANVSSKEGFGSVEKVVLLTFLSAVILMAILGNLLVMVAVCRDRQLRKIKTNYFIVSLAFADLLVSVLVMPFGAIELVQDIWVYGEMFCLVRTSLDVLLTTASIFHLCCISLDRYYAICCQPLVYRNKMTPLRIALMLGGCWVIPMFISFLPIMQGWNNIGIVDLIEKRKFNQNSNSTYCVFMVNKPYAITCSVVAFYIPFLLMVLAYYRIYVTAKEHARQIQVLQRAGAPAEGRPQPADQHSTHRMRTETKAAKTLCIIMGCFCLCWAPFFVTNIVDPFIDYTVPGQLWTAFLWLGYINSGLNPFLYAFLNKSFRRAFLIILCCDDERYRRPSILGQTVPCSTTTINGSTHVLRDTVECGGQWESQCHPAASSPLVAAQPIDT

Row | SMILES | Ki
1 | CN1C2CCC1CC(OC(=O)c1c[nH]c3ccccc13)C2 (configuration not stated) | 63.1 nM
2 | CCN(CC)CCNC(=O)c1cc(Cl)c(N)cc1OC [4-amino-5-chloro-N-[2-(diethylamino)ethyl]-2-methoxy-benzamide;hydrochloride] | 631 nM and 501 nM
3 | Cn1cc(CCN)c2cc(O)ccc21 [5-HT,omega-N-Me] | 1580 nM
4 | CCn1c(=O)n(C(=O)NC2CC3CCC(C2)N3C)c2ccccc21 (configuration not stated) [BIMU 1] | 15.8 nM
5 | CC(C)n1c(=O)n(C(=O)NC2C[C@H]3CC[C@@H](C2)N3C)c2ccccc21 (some centres not stated) [BIMU 8] | 25.1 nM and 12.6 nM
6 | Cn1cc(C(=O)OCC2CCN(CCNS(C)(=O)=O)CC2)c2ccccc21 [GR 113808] | 0.25 nM and 0.31 nM
7 | COc1cc(N)c(Cl)cc1C(=O)NC1CCN2CCCC1C2 (configuration not stated) [NSC_3035240] | 126 nM and 100 nM
8 | CCN(CC)CCOC(=O)c1cc(Cl)c(N)cc1OC [SDZ-205557] | 7.94 nM and 6.3 nM
9 | COc1cc(N)c(Cl)cc1C(=O)NC1CN2CCC1CC2 (configuration not stated) [ZACOPRIDE,R] | 200 nM and 158 nM and 251 nM
10 | COc1cc(N)c(Cl)cc1C(=O)N[C@@H]1CN2CCC1CC2 [ZACOPRIDE,R] | 1000 nM and 501 nM
11 | NCCc1c[nH]c2ccc(C(N)=O)cc12 [[3H]-5-carboxamidotryptamine] | 6310 nM
12 | COc1ccc2[nH]cc(CCN)c2c1 [tryptamine, 5-Methoxy] | 631 nM and 316 nM

From BindingDB's records for doi:10.1111/j.1476-5381.1993.tb13617.x (Glaxo Group Research, 1993)
